This note sets out measurements from paper PMC8563752, “An oxidative metabolic pathway of 4-deoxy-L-erythro-5-hexoseulose uronic acid (DEHU) from alginate in an alginate-assimilating bacterium” (Communications Biology, 2021).

Experiment [1] deals with T1, recFlRed.
T1 construct: gene FlRed; native 27 kDa on SDS-PAGE, about 102 kDa on gel filtration, tetramer
Kind of experiment: NADH consumption by absorbance at […] nm, Michaelis-Menten fit. Particulars: reductase direction; 0.2 mM NADH, 0.15 M KCl, 10 mM sodium phosphate pH 7.4, 20 °C. Type of experiment: biochemical, Flavobacterium sp. UMI-01.

In experiment [2] the target is T2, recFlDeg (Flavobacterium sp. UMI-01, UniProt A0A6S6ASF6).
T2 construct: full length, His-tag, E. coli BL21(DE3); calculated mass 57,142 Da; Glu251 and Cys288 conserved
T2 sequence (A0A6S6ASF6 1-515): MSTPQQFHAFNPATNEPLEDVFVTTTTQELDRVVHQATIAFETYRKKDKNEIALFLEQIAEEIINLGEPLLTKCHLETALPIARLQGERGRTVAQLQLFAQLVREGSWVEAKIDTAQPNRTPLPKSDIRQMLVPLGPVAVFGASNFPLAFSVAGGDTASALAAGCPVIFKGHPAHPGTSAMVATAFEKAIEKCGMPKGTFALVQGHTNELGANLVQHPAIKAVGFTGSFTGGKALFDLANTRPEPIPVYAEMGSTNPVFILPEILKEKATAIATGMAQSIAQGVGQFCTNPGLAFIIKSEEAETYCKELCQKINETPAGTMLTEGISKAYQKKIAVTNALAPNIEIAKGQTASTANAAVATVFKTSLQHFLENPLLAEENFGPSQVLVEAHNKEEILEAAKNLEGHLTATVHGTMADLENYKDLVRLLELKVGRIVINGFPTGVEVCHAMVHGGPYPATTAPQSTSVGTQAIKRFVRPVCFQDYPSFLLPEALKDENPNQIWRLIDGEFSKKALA
Kind of experiment: NADH formation at […] nm; TLC, ESI-MS and NMR of product. It counts as biochemical. The note with it: NAD+, […] potassium phosphate pH […] KCl, […] MgCl2, […] °C.

The subject of experiment [3] is T1, recFlRed. The experiment can be described thus: coenzyme consumption by absorbance at […] nm, Michaelis-Menten fit. It counts as biochemical, Flavobacterium sp. UMI-01. The note with it: reductase direction; 5 mM DEHU, 0.15 M KCl, 10 mM sodium phosphate pH 7.4, 20 °C.
Experiment [4] deals with T2, recFlDeg. Kind of experiment: NADH formation at […] nm. It counts as biochemical. Particulars: […] alpha-KGSA, […] potassium phosphate pH […] KCl, […] MgCl2, […] °C.
The subject of experiment [5] is T1, recFlRed. The experiment can be described thus: NADH formation by absorbance at […] nm, Michaelis-Menten fit. Type of experiment: biochemical, Flavobacterium sp. UMI-01. Particulars: oxidase direction; 5 mM DEHU, 0.15 M KCl, 10 mM sodium phosphate pH 7.4, 20 °C.
In the next experiment the target is T3, recFlDet (Flavobacterium sp. UMI-01, UniProt A0A6S6B272).
T3 construct: full length 237 residues (25,697 Da), C-terminal His-tag (27,394 Da), E. coli BL21(DE3); native tetra- or pentamer; N-terminus […]
T3 sequence (A0A6S6B272 1-237): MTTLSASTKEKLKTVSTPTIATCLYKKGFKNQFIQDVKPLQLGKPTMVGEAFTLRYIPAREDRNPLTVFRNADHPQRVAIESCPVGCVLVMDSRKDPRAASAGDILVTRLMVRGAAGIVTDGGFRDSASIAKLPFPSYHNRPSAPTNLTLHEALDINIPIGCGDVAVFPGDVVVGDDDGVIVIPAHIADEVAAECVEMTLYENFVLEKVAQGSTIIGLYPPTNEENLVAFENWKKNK
Kind of experiment: TBA method (decrease at […] nm), TLC, ESI-MS of product. It counts as biochemical. Particulars: […] potassium phosphate pH […] KCl, […] MgCl2, […] °C.

Experiment [6] has as its system T1, recFlRed. The experiment can be described thus: NADPH formation by absorbance at […] nm, Michaelis-Menten fit. Particulars: oxidase direction; 5 mM DEHU, 0.15 M KCl, 10 mM sodium phosphate pH 7.4, 20 °C. Type of experiment: biochemical, Flavobacterium sp. UMI-01.

Take `O=C[C@@H](O)[C@@H](O)CC(=O)C(=O)O` [DEHU]: the Km in the experiment on recFlRed [1] was 2600 ± 100 µM.

As to `O=CCCC(=O)C(=O)O` [α-KGSA], the “NADH formation at 340 nm; TLC, ESI-MS and NMR of product” value at recFlDeg [2] is on record as “FlDeg is the enzyme catalyzing the oxidation of the aldehyde group of α-KGSA”. Consider `NC(=O)C1=CN([C@@H]2O[C@H](COP(=O)(O)OP(=O)(O)OC[C@H]3O[C@@H](n4cnc5c(N)ncnc54)[C@H](O)[C@@H]3O)[C@@H](O)[C@H]2O)C=CC1` [NADH], for which, in the experiment with recFlRed [3], the Km came to 37 ± 2 µM. The same measure, in the same setting: under `NC(=O)C1=CN([C@@H]2O[C@H](COP(=O)(O)OP(=O)(O)OC[C@H]3O[C@@H](n4cnc5c(N)ncnc54)[C@H](OP(=O)(O)O)[C@@H]3O)[C@@H](O)[C@H]2O)C=CC1` [NADPH] stands 980 ± 100 µM. For `NC(=O)c1ccc[n+]([C@@H]2O[C@H](COP(=O)(O)OP(=O)(O)OC[C@H]3O[C@@H](n4cnc5c(N)ncnc54)[C@H](O)[C@@H]3O)[C@@H](O)[C@H]2O)c1` [NAD^+], the “NADH formation at 340 nm” value at recFlDeg [4] is given as “recFlDeg preferred NAD^+ to NADP^+”. Also, the Km in the experiment on recFlRed [5] is 98 ± 10 µM. On to `O=C(O)C(=O)C[C@H](O)[C@H](O)C(=O)O` [KDGR], for which the “TBA method (decrease at 548 nm), TLC, ESI-MS of product” value on recFlDet is given as “KDGR was determined to be the sole α-keto acid recognized by recFlDet”. As to `NC(=O)c1ccc[n+]([C@@H]2O[C@H](COP(=O)(O)OP(=O)(O)OC[C@H]3O[C@@H](n4cnc5c(N)ncnc54)[C@H](OP(=O)(O)O)[C@@H]3O)[C@@H](O)[C@H]2O)c1` [NADP^+], the Km in the experiment with recFlRed [6] was 1400 ± 200 µM.
